Molecules are shown by their SMILES. Where two headings read alike, the source gives them in different places.

Assay [1] concerns Seizures induced by pentylenetetrazol (PTZ) in mice. The assay can be described thus: Pentylenetetrazol test (anticonvulsant activity). It counts as in vivo. To be noted: for ED50 PTZ / ED50: male CF-1 mice, compound i.p., pentylenetetrazol 100 mg kg^−1 i.p. 30 min after, end point suppression of clonic seizures and death; for ED50: Mus musculus, ip, 0.5 h; for anticonvulsant activity relative to that of the non-halogenated compounds: pentylenetetrazol test, mice, from Table 1. The procedure: Male albino mice CF-1 strain (National Institute of Virology, Mexico City) weighing 18-25 g were housed in groups of 20, at room temperature (20-24° C.), with tap water and food (pellet type Blue Bonnet) ad libitum, with a 12-h light-dark cycle. DL-2-hydroxy-2-phenyl butyramide, DL-3-hydroxy-3-phenyl pentanamide, DL-4-hydroxy-4-phenyl hexanamide and pentylenetetrazol were dissolved in water and compounds 1-10 were dissolved in a 30% polyethyleneglycol-400 solution. All the compounds used were administered intraperitoneally (i.p.). The convulsant dose of pentylenetetrazol inducing seizures and death in 100% of mice (CD100) was determined and used in the test. CD100 value obtained was 100 mg kg^1. To determine the dose-response curves five separate groups of 10-20 mice were dosed i.p. with the test compounds, and pentylenetetrazol, 100 mg kg^−1, i.p., was administered at 30 min after. The suppression of clonic seizures and death was considered the end point of the test. […] The ED50 and 95% confidence intervals were calculated by the method of Litchfield and Wilcoxon (Table 1). See Litchfield et al., J. Pharmacol. Exp. Ther. 96, 99 (1949).

In assay [2] the test system is seizures provoked by pentylenetetrazole, bicuculline, 4-aminopyridine, thiosemicarbazide and maximal electroshock. As to conditions: mice; cited from earlier work.
Assay [3] has as its system hippocampal kindling. As to conditions: cats; cited from earlier work.
Assay [4] concerns hippocampal kindling. To be noted: rats; cited from earlier work.
For assay [5], the system named is γ-aminobutyric acid withdrawal syndrome. To be noted: rats; cited from earlier work.
Assay [6] has as its system focal spike activity. As to conditions: genetic absence epilepsy rats of the Strasbourg model; cited from earlier work.

With `CCC(O)(CC(N)=O)c1ccccc1` (racemic) [DL-3-hydroxy-3-Phenyl pentanamide, DL-3-hydroxy-3-phenylpentanamide], in assay [1], the “ED50 PTZ” value is given as 49 mgkg^−1. Further, in assay [2], the protection against seizures entry is given as “protect mice against seizures”. The “protection against hippocampal kindling” value in assay [3] is “protect cats and rats against hippocampal kindling”; in assay [4] it was “protect cats and rats against hippocampal kindling”. Moreover, the “protection against γ-aminobutyric acid withdrawal syndrome” value in assay [5] is recorded as “protects rats against the γ-aminobutyric acid withdrawal syndrome”. Moreover, in assay [6], the focal spike activity result is given as “significant decrease of focal spike activity”.
For the molecule `CCC(O)(C(N)=O)c1cc(C(F)(F)F)cc(C(F)(F)F)c1` (racemic) [Compound 1, DL-2-hydroxy-2-(3′,5′-bistrifluoromethylphenyl) butyramide], in assay [1], the ED50 was 10 mg/kg and the “anticonvulsant activity relative to that of the non-halogenated compounds” value was “more than fivefold, sixfold or sevenfold”.
On to `CCC(O)(C(N)=O)c1ccc(Cl)c(Cl)c1` (racemic) [Compound 3, DL-2-hydroxy-2-(3′,4′-dichlorophenyl)butyramide], for which, in assay [1], the ED50 was determined as 10 mg/kg and the “anticonvulsant activity relative to that of the non-halogenated compounds” value is reported as “more than fivefold, sixfold or sevenfold”.
For the molecule `CCC(O)(C(N)=O)c1ccc(Br)cc1` (racemic) [Compound 5, DL-2-hydroxy-2-(4′-bromophenyl)butyramide], in assay [1], it took a dose of 8 mg/kg to reach the 50% effect level (ED50) and the “anticonvulsant activity relative to that of the non-halogenated compounds” value is listed as “more than fivefold, sixfold or sevenfold”.
Take `CCC(O)(CCC(N)=O)c1ccccc1` (racemic) [DL-4-hydroxy-4-Phenylhexanamide, DL-4-hydroxy-4-phenylhexanamide]: the “ED50 PTZ” value in assay [1] turned out to be 55 mgkg^−1. In addition, in assay [2], the protection against seizures result is reported as “protect mice against seizures”. Further, the “protection against hippocampal kindling” value in assay [3] was “protect cats and rats against hippocampal kindling”; in assay [4], “protect cats and rats against hippocampal kindling”.
In the case of `CCC(O)(CCC(N)=O)c1ccc(Br)cc1` (racemic) [Compound 10, DL-4-hydroxy-4-(4′-bromophenyl)hexanamide], in assay [1], the ED50 was determined as 9 mg/kg and the “anticonvulsant activity relative to that of the non-halogenated compounds” value is on record as “more than fivefold, sixfold or sevenfold”.
`CCC(O)(C(N)=O)c1ccccc1` (racemic) [DL-2-hydroxy-2-Phenyl butyramide, DL-2-hydroxy-2-phenylbutyramide]: the “ED50 PTZ” value in assay [1] is 58 mgkg^−1. In addition, the protection against seizures entry in assay [2] was “protect mice against seizures”. Also, the “protection against hippocampal kindling” value is “protect cats and rats against hippocampal kindling” in assay [3]; “protect cats and rats against hippocampal kindling” in assay [4].
Regarding `CCC(O)(C(N)=O)c1cccc([N+](=O)[O-])c1` (racemic) [Compound 6, DL-2-hydroxy-2-(3′-nitrophenyl)butyramide], in assay [1], the ED50 came to 36 mg/kg and the “anticonvulsant activity relative to that of the non-halogenated compounds” value is reported as “twice, threefold or more than fourfold”.
As for `CCC(O)(CC(N)=O)c1ccc(Br)cc1` (racemic) [Compound 8, DL-3-hydroxy-3-(4′-bromophenyl) pentanamide], in assay [1], it took a dose of 8 mg/kg to reach the 50% effect level (ED50) and the “anticonvulsant activity relative to that of the non-halogenated compounds” value was “more than fivefold, sixfold or sevenfold”.
For `CCC(O)(C(N)=O)c1cccc(Br)c1` (racemic) [Compound 4, DL-2-hydroxy-2-(3′-bromophenyl)butyramide], in assay [1], the 50% effective dose (ED50) is 8 mg/kg and the “anticonvulsant activity relative to that of the non-halogenated compounds” value is “more than fivefold, sixfold or sevenfold”.
For the molecule `CCC(O)(CCC(N)=O)c1ccc(Cl)c(Cl)c1` (racemic) [Compound 9, DL-4-hydroxy-4-(3′,4′-dichlorophenyl)hexanamide], in assay [1], the ED50 was 12 mg/kg and the “anticonvulsant activity relative to that of the non-halogenated compounds” value is on record as “twice, threefold or more than fourfold”.
As for `CCC(O)(C(N)=O)c1ccc(C(F)(F)F)cc1` (racemic) [Compound 2, DL-2-hydroxy-2-(4′-trifluoromethylphenyl)butyramide], in assay [1], it took a dose of 23 mg/kg to reach the 50% effect level (ED50) and the “anticonvulsant activity relative to that of the non-halogenated compounds” value is given as “twice, threefold or more than fourfold”.
Consider `CCC(O)(CC(N)=O)c1ccc(Cl)c(Cl)c1` (racemic) [Compound 7, DL-3-hydroxy-3-(3′,4′-dichlorophenyl)pentanamide], for which, in assay [1], the ED50 amounted to 16 mg/kg and the “anticonvulsant activity relative to that of the non-halogenated compounds” value is “twice, threefold or more than fourfold”.

For orientation: ED50 means the dose at which the effect has come halfway, by size or by number of responders. Read a low ED50 as an effect at a small dose.

The record behind these values is patent US20060287397A1, “Dl-hydroxy-alkyl-phenylamides having anticonvulsive activity” (priority 2002, published 2006).
